Test results reported in patent publication US20080114017A1, “Novel Indolopyridines, Benzofuranopyridines and Benzothienopyridines” (priority 2005, published 2008).

Legend:
[1] = system: RKO human colon adenocarcinoma cells (RKO p27 subclone, uninduced); test: Alamar Blue cell viability assay, anti-proliferative/cytotoxic activity, proliferating RKO p27 cells (uninduced); type: cell-based; settings: RKOp27, absence of Ponasterone A, 72 hours incubation
Method: The anti-proliferative/cytotoxic activity of the compounds described herein can be tested on subclones of RKO human colon adenocarcinoma cells (Schmidt et al., Oncogene 19, 2423-2429; 2000) using the Alamar Blue cell viability assay (described in O'Brien et al. Eur J Biochem 267, 5421-5426, 2000). The compounds are dissolved as 10 mM solutions in DMSO and subsequently diluted in semi-logarithmic steps. DMSO dilutions are further diluted 1:100 into Dulbecco's modified Eagle's medium (DMEM) containing 10% fetal calf serum to a final concentration twice as much as the final concentration in the test. RKO subclones are seeded into 96 well flat bottom plates at a density of 4000 cells per well in a volume of 50 μl per well. 24 hours after seeding the 50 μl each of the compound dilutions in DMEM medium are added into each well of the 96 well plate. Each compound dilution is tested as quadruplicates. Wells containing untreated control cells are filled with 50 μl DMEM medium containing 1% DMSO. The cells are then incubated with the substances for 72 hours at 37° C. in a humidified atmosphere containing 5% carbon dioxide. To determine the viability of the cells, 10 μl of an Alamar Blue solution (Biosource) are added and the fluorescence is measured at an extinction of 544 nm and an emission of 590 nm. For the calculation of the cell viability the emission value from untreated cells is set as 100% viability and the emission rates of treated cells are set in relation to the values of untreated cells. Viabilities are expressed as % values.
The corresponding IC50 values of the compounds for anti-proliferative/cytotoxic activity are determined from the concentration-effect curves.
(§1) Representative IC50 values for anti-proliferation/cytotoxicity determined in the aforementioned assays follow from the following table A, in which the numbers of the compounds correspond to the numbers of the examples.

[2] = system: RKO colon adenocarcinoma cells (RKOp27, induced); test: Alamar Blue cell viability assay, cell cycle specific mode of action, RKO p27 cells arrested by Ponasterone A induced p27Kip1; type: cell-based; settings: Homo sapiens, cells arrested by ectopic p27Kip1 induced with 10 μM Ponasterone A, 72 hours incubation
Method: To determine the cell cycle specific mode of action, subclones of RKO colon adenocarcinoma cells (RKOp27 as described by Schmidt et al. in Oncogene 19, 2423-2429; 2000) are seeded into 96 well flat bottom plates at a density of 16000 cells per well in a volume of 50 μl per well in DMEM growth medium with 10% FCS containing 10 μM Ponasterone A. 24 hours after seeding the 50 μl each of the compound dilutions in DMEM medium are added into each well of the 96-well plate. Each compound dilution is tested as quadruplicates. Wells containing untreated control cells are filled with 50 μl DMEM medium containing 1% DMSO. The cells are then incubated with the substances for 72 hours at 37° C. in a humidified atmosphere containing 5% carbon dioxide. To determine the viability of the cells, 10 μl of an Alamar Blue solution (Biosource) are added and the fluorescence is measured at an extinction of 544 nm and an emission of 590 nm. For the calculation of the cell viability the emission value from untreated cells is set as 100% viability and the emission rates of treated cells are set in relation to the values of untreated cells. Viabilities are expressed as % values. Viability is compared of proliferating cells grown in the absence of the inducer Ponasterone A, versus viability of cells arrested by the expression of ectopic p27Kip1 induced by Ponasterone A.
as §1

IC50 [2] [µM] | SMILES | IC50 [1] [µM]
> 100 | CN1C(=O)[C@@H]2Cc3c([nH]c4ccccc34)[C@@H](c3cccc(OC(F)(F)F)c3)N2C1=S [Compound 1, (3aS,10R)-2-Methyl-1-thioxo-10-(3-trifluoromethoxy-phenyl)-1,2,3a,4,9,10-hexahydro-2,9,10a-triaza-cyclopenta[b]fluoren-3-one] | ≤ 2
> 100 | COC(=O)c1cccc([C@@H]2c3[nH]c4ccccc4c3C[C@H]3C(=O)N(C)C(=S)N23)c1 [Compound 5, 3-((3aS,10R)-2-Methyl-3-oxo-1-thioxo-2,3,3a,4,9,10-hexahydro-1H-2,9,10a-triaza-cyclopenta[b]fluoren-10-yl)-benzoic acid methyl ester] | ≤ 2
> 100 | COC(=O)c1ccc(OC)c([C@@H]2c3[nH]c4ccccc4c3C[C@H]3C(=O)N(C)C(=S)N23)c1 [Compound 7, 4-Methoxy-3-((3aS,10R)-2-methyl-3-oxo-1-thioxo-2,3,3a,4,9,10-hexahydro-1H-2,9,10a-triaza-cyclopenta[b]fluoren-10-yl)-benzoic acid methyl ester] | ≤ 2
> 100 | COC(=O)c1cc(Cl)cc([C@@H]2c3[nH]c4ccccc4c3C[C@H]3C(=O)N(C)C(=S)N23)c1 [Compound 6, 3-Chloro-5-((3aS,10R)-2-methyl-3-oxo-1-thioxo-2,3,3a,4,9,10-hexahydro-1H-2,9,10a-triaza-cyclopenta[b]fluoren-10-yl)-benzoic acid methyl ester] | ≤ 2
> 100 | COC(=O)c1cccc([C@@H]2c3[nH]c4ccccc4c3C[C@H]3C(=O)N(C)C(=S)N23)c1 (racemic) [Compound 4, 3-((3aSR, 10RS)-2-Methyl-3-oxo-1-thioxo-2,3,3a,4,9,10-hexahydro-1H-2,9,10a-triaza-cyclopenta[b]fluoren-10-yl)-benzoic acid methyl ester] | ≤ 2
